What all share (assay): NCI-60 cell line screen, 48 h
The test system of test [1] is A549 NSCLC.
The subject of test [2] is LOX IMVI melanoma.
Test [3] deals with HCT-116 colon.
The subject of test [4] is KM12 colon.
Test [5] deals with HOP-92 NSCLC.
Test [6] has as its system SK-MEL-5 melanoma.
In test [7] the test system is ACHN renal.
In test [8] the test system is IGROV1 ovarian.
Test [9] has as its system CCRF-CEM leukemia.
Test [10] deals with OVCAR-5 ovarian.

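96-well plates; 48 h exposure; 5 concentrations. Endpoints by linear interpolation between flanking doses. Not reached: highest tested concentration assigned. Abbreviation: GI50, concentration required for 50% inhibition of growth. TGI denotes the concentration required for complete inhibition of growth.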

Turning to `COc1ccc(Cn2cnc3cc(C(=O)Nc4cccc5ccccc45)ccc32)c(OC)c1`, the GI50 in [1] is 0.0644 µM; in test [2] it was 0.0611 µM; in test [3] it was 0.0374 µM; in test [4], 0.0391 µM; in test [5] it was 0.153 µM; in test [6], 0.0502 µM. Further, the GI50 is 0.078 µM in test [7], 0.0653 µM in [8], 0.0407 µM in test [9] and 0.18 µM in [10]. Also, the TGI in test [1] was over 100 µM; in [2], over 100 µM; in test [3] it was 4.49 µM; in test [4], 8.06 µM; in [5], over 100 µM; in test [6], 6.71 µM. Further, the TGI in test [7], in test [8], in test [9] and in test [10] was over 100 µM throughout.

As for `COc1cc2c3c(n(CCCCNC(=O)OCC4c5ccccc5-c5ccccc54)c(=O)c2cc1OC)-c1cc2c(cc1C3=O)OCO2`, the GI50 in test [1] is 17.4 µM; in test [2] it was 7.08 µM; in test [3], 7.73 µM; in test [4] it was 22 µM; in [5], 1.49 µM; in test [6], 23.4 µM. In addition, the GI50 in [7] is 5.8 µM; in [8], 17.9 µM; in [9], 2.75 µM; in test [10], 17.4 µM. Moreover, the TGI is over 100 µM in [1]; over 100 µM in test [2]; 33.6 µM in test [3]; over 100 µM in test [4]; 9.69 µM in test [5]; over 100 µM in [6]. Also, the TGI in [7] is 50.4 µM; in test [8], over 100 µM; in test [9] it was over 100 µM; in [10] it was 51 µM.

In the case of `CCN(CC)CCC(=O)N1CCc2c([nH]c3ccccc23)C1c1cccnc1` (stereo not given), the TGI in test [1], in test [2], in test [3], in [4], in test [5] and in test [6] was over 100 µM throughout. Also, the TGI in test [7], in test [8], in [9] and in test [10] was over 100 µM throughout.

`O=C1/C(=C/c2ccc([N+](=O)[O-])o2)Oc2ccccc21`: the GI50 in [1] was 3.23 µM; in [2], 1.42 µM; in [3] it was 0.332 µM; in test [4], 1.77 µM; in [5] it was 0.912 µM; in test [6], 1.69 µM. The GI50 is 0.895 µM in test [7], 1.37 µM in test [8], 0.338 µM in [9] and 1.85 µM in test [10]. The TGI in test [1] came to 12.3 µM; in test [2], 2.93 µM; in test [3], 1.36 µM; in test [4], 3.48 µM; in test [5], 2.62 µM; in test [6], 3.29 µM. Besides, the TGI in [7] was 2.17 µM; in test [8] it was 3.62 µM; in test [9], 1.38 µM; in [10], 3.5 µM.

`COc1cc(-n2cc(-c3ccc(F)cc3)[nH]c2=S)cc(OC)c1OC`: the GI50 was over 100 µM in [1]; over 100 µM in test [2]; over 100 µM in [3]; over 100 µM in test [4]; 45.5 µM in [5]; over 100 µM in test [6]. Moreover, the GI50 is over 100 µM in [7], 41.6 µM in test [8], over 100 µM in [9] and over 100 µM in test [10]. The TGI in test [1], in test [2], in test [3], in [4], in test [5] and in [6] was over 100 µM in each case. The TGI in test [7], in [8], in test [9] and in [10] was over 100 µM in each case.

As to `CC(=O)c1c(O)ccc2c(C)c(C(=O)O)oc12`, the GI50 in [1], in test [2], in test [3], in test [4], in [5] and in [6] was over 100 µM each time. The GI50 in test [7], in [8], in test [9] and in test [10] was over 100 µM in each case. Moreover, the TGI in test [1], in test [2], in test [3], in [4], in test [5] and in [6] was over 100 µM throughout. Moreover, the TGI in [7], in [8], in test [9] and in test [10] was over 100 µM throughout.

For the compound `O=c1[nH]ccc2nc(-c3ccc(CN4CCC(c5nc(-c6ccccn6)n[nH]5)CC4)cc3)c(-c3ccccc3)cc12`, the GI50 was 16.2 µM in test [1]; 19.3 µM in [2]; 17.2 µM in test [3]; 14.7 µM in test [4]; 0.121 µM in [5]; 6.03 µM in test [6]. Also, the GI50 is 21.2 µM in test [7], 0.0652 µM in [8], 2.04 µM in test [9] and 37.8 µM in [10]. For the same compound, the TGI in [1] was over 100 µM; in [2], over 94.2 µM; in test [3], over 92.7 µM; in [4] it was over 100 µM; in test [5], over 21.3 µM; in test [6], 24 µM. Besides, the TGI in test [7], in [8], in test [9] and in test [10] was over 100 µM each time.

Take `COc1ccc(CC2NCCc3cc(OC)c(OC)cc32)cc1` (stereo not given): the TGI in [1], in test [2], in test [3], in test [4], in test [5] and in [6] was over 100 µM each time. The TGI in [7], in test [8], in [9] and in test [10] was over 100 µM in each case.

These data come from PubChem BioAssay (NCI).
